From the supplement of paper PMC11061612

Key:
Assay in all cases: Bliss excess, mean over the matrix (fraction); higher = more synergy
[1] = system: NCI-H1341 (Small Cell Lung Carcinoma)
Method in brief: (§1)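 Cell lines grown in DMEM/F12 or RPMI with 10% FBS were plated in 1536-well plates and held 24 hours at 37°C, 5% CO2 before 72 hours of exposure to two-drug dose matrices, with DMSO typically at 0.2%. CellTiter-Glo 2.0 luminescence gave viability, which was converted to inhibition. Vehicle wells were set to 0 and blank wells to 1. Combination Emax is the second-highest inhibition in the matrix, and Bliss excess is the observed combination effect minus the expected EA + EB − EA·EB, where EA and EB are the single-agent effects.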

WM35 (Melanoma) = system: WM35 (Melanoma)
Method in brief: as §1

[2] = system: TUR (Acute Myeloid Leukemia)
Method in brief: as §1

[3] = system: Raji (Burkitt's Lymphoma)
Method in brief: as §1

[4] = system: MONO-MAC-6 (Acute Myeloid Leukemia)
Method in brief: as §1

[5] = system: NCI-H596 (Other Solid Carcinomas)
Method in brief: as §1

[6] = system: CPC-N (Small Cell Lung Carcinoma)
Method in brief: as §1

[7] = system: IA-LM (Non-Small Cell Lung Carcinoma)
Method in brief: as §1

[8] = system: SNU-423 (Hepatocellular Carcinoma)
Method in brief: as §1

SK-N-SH (Neuroblastoma) = system: SK-N-SH (Neuroblastoma)
Method in brief: as §1

[9] = system: BxPC-3 (Pancreatic Carcinoma)
Method in brief: as §1

[10] = system: SCC-4 (Oral Cavity Carcinoma)
Method in brief: as §1

[11] = system: SNU-C2B (Colorectal Carcinoma)
Method in brief: as §1

[12] = system: CL-11 (Colorectal Carcinoma)
Method in brief: as §1

[13] = system: NCI-H3118 (Head and Neck Carcinoma)
Method in brief: as §1

[14] = system: P32-ISH (Burkitt's Lymphoma)
Method in brief: as §1

[15] = system: DBTRG-05MG (Glioblastoma)
Method in brief: as §1

AM-38 (Glioblastoma) = system: AM-38 (Glioblastoma)
Method in brief: as §1

[16] = system: PA-TU-8988T (Pancreatic Carcinoma)
Method in brief: as §1

[17] = system: PL4 (Pancreatic Carcinoma)
Method in brief: as §1

## CC(=O)c1c(C)c2cnc(Nc3ccc(N4CCNCC4)cn3)nc2n(C2CCCC2)c1=O [Palbociclib] + Cn1cnc2c(F)c(Nc3ccc(Br)cc3Cl)c(C(=O)NOCCO)cc21 [Selumetinib] (first compound max 10 µM, 7x7, partner max 10 µM)
[1]
  Bliss excess: -0.0199
WM35 (Melanoma)
  Bliss excess: -0.0282
[2]
  Bliss excess: -0.0069
[3]
  Bliss excess: -0.0103
[4]
  Bliss excess: 0.0184
[5]
  Bliss excess: -0.0393
[6]
  Bliss excess: -0.0271
[7]
  Bliss excess: 0.0126
[8]
  Bliss excess: -0.0141
SK-N-SH (Neuroblastoma)
  Bliss excess: -0.0238
[9]
  Bliss excess: -0.0238
[10]
  Bliss excess: 0.0091
[11]
  Bliss excess: 0.0282
[12]
  Bliss excess: 0.0303
[13]
  Bliss excess: 0.0418
[14]
  Bliss excess: -0.0334
[15]
  Bliss excess: 0.0013
AM-38 (Glioblastoma)
  Bliss excess: 0.0242
[16]
  Bliss excess: 0.0449
[17]
  Bliss excess: -0.0553

## COc1cccc(OCCCN)c1-c1cc(Nc2cnc(C#N)cn2)n[nH]1 [Prexasertib] + C=CCn1c(=O)c2cnc(Nc3ccc(N4CCN(C)CC4)cc3)nc2n1-c1cccc(C(C)(C)O)n1 [AZD1775] (first compound max 1 µM, partner max 1 µM)
[1]
  Bliss excess: 0.13
WM35 (Melanoma)
  Bliss excess: 0.0668
[2]
  Bliss excess: 0.105
[3]
  Bliss excess: 0.0907
[4]
  Bliss excess: 0.168
[5]
  Bliss excess: 0.0087
[6]
  Bliss excess: 0.0431
[7]
  Bliss excess: 0.0573
[8]
  Bliss excess: 0.128
SK-N-SH (Neuroblastoma)
  Bliss excess: 0.0025
[9]
  Bliss excess: -0.0074
[10]
  Bliss excess: -0.0358
[11]
  Bliss excess: -0.0336
[12]
  Bliss excess: -0.0496
[13]
  Bliss excess: 0.0483
[14]
  Bliss excess: 0.0657
[15]
  Bliss excess: -0.0008
AM-38 (Glioblastoma)
  Bliss excess: 0.0907
[16]
  Bliss excess: 0.227
[17]
  Bliss excess: 0.0483

## COc1cccc(OCCCN)c1-c1cc(Nc2cnc(C#N)cn2)n[nH]1 [Prexasertib] + CCc1c2c(nc3ccc(O)cc13)-c1cc3c(c(=O)n1C2)COC(=O)[C@]3(O)CC [SN-38] (first compound max 1 µM, 7x7, partner max 0.3 µM)
[1]
  Bliss excess: -0.0174
WM35 (Melanoma)
  Bliss excess: -0.0582
[2]
  Bliss excess: 0.0107
[3]
  Bliss excess: -0.0279
[4]
  Bliss excess: 0.0092
[5]
  Bliss excess: 0.0625
[6]
  Bliss excess: 0.0633
[7]
  Bliss excess: -0.0012
[8]
  Bliss excess: 0.0169
SK-N-SH (Neuroblastoma)
  Bliss excess: -0.0778
[9]
  Bliss excess: 0.0111
[10]
  Bliss excess: 0.0021
[11]
  Bliss excess: -0.0388
[12]
  Bliss excess: 0.0172
[13]
  Bliss excess: 0.0162
[14]
  Bliss excess: -0.0201
[15]
  Bliss excess: -0.0558
AM-38 (Glioblastoma)
  Bliss excess: -0.0317
[16]
  Bliss excess: 0.167
[17]
  Bliss excess: -0.0027

## COc1cccc(OCCCN)c1-c1cc(Nc2cnc(C#N)cn2)n[nH]1 [Prexasertib] + CN(C)CCCOc1ccc(-c2ccc3ncc4c(c3c2)n(C2CCOCC2)c(=O)n4C)cn1 [AZD0156] (first compound max 1 µM, 7x7, partner max 1 µM)
[1]
  Bliss excess: -0.032
WM35 (Melanoma)
  Bliss excess: 0.0756
[2]
  Bliss excess: 0.013
[3]
  Bliss excess: -0.0105
[4]
  Bliss excess: 0.0031
[5]
  Bliss excess: -0.0909
[6]
  Bliss excess: 0.0081
[7]
  Bliss excess: -0.0364
[8]
  Bliss excess: -0.0711
SK-N-SH (Neuroblastoma)
  Bliss excess: -0.0496
[9]
  Bliss excess: -0.0582
[10]
  Bliss excess: -0.0323
[11]
  Bliss excess: -0.0133
[12]
  Bliss excess: -0.0548
[13]
  Bliss excess: -0.036
[14]
  Bliss excess: -0.0238
[15]
  Bliss excess: -0.0209
AM-38 (Glioblastoma)
  Bliss excess: 0.0112
[16]
  Bliss excess: 0.0179
[17]
  Bliss excess: -0.0387

## COc1cccc(OCCCN)c1-c1cc(Nc2cnc(C#N)cn2)n[nH]1 [Prexasertib] + C[C@@H]1COCCN1C2=NC(=NC(=C2)C3(CC3)[S@](=N)(=O)C)C4=C5C=CNC5=NC=C4 [AZD6738] (first compound max 1 µM, 7x7, partner max 10 µM)
[1]
  Bliss excess: -0.0683
WM35 (Melanoma)
  Bliss excess: -0.026
[2]
  Bliss excess: 0.0298
[3]
  Bliss excess: -0.0472
[4]
  Bliss excess: 0.0104
[5]
  Bliss excess: 0.0159
[6]
  Bliss excess: -0.013
[7]
  Bliss excess: 0.0439
[8]
  Bliss excess: 0
SK-N-SH (Neuroblastoma)
  Bliss excess: -0.0425
[9]
  Bliss excess: -0.0535
[10]
  Bliss excess: -0.0323
[11]
  Bliss excess: -0.0274
[12]
  Bliss excess: -0.058
[13]
  Bliss excess: -0.032
[14]
  Bliss excess: -0.0127
[15]
  Bliss excess: -0.0378
AM-38 (Glioblastoma)
  Bliss excess: -0.0074
[16]
  Bliss excess: 0.0224
[17]
  Bliss excess: -0.0024

## COc1cccc(OCCCN)c1-c1cc(Nc2cnc(C#N)cn2)n[nH]1 [Prexasertib] + Cc1cc2ncnn2cc1Nc1ncc2c(n1)n(C1CCOCC1)c(=O)n2C [AZD7648] (first compound max 1 µM, 7x7, partner max 10 µM)
[1]
  Bliss excess: 0.0194
WM35 (Melanoma)
  Bliss excess: 0.0429
[2]
  Bliss excess: -0.0005
[3]
  Bliss excess: -0.0135
[4]
  Bliss excess: 0.0406
[5]
  Bliss excess: -0.026
[6]
  Bliss excess: -0.0459
[7]
  Bliss excess: 0.0324
[8]
  Bliss excess: -0.0244
SK-N-SH (Neuroblastoma)
  Bliss excess: -0.0138
[9]
  Bliss excess: -0.0908
[10]
  Bliss excess: -0.0267
[11]
  Bliss excess: -0.0356
[12]
  Bliss excess: -0.0065
[13]
  Bliss excess: -0.0501
[14]
  Bliss excess: -0.0068
[15]
  Bliss excess: -0.0105
AM-38 (Glioblastoma)
  Bliss excess: 0.0296
[16]
  Bliss excess: 0.0389
[17]
  Bliss excess: 0.0048

## COc1cccc(OCCCN)c1-c1cc(Nc2cnc(C#N)cn2)n[nH]1 [Prexasertib] + O=C(c1cc(Cc2n[nH]c(=O)c3ccccc23)ccc1F)N1CCN(C(=O)C2CC2)CC1 [Olaparib] (first compound max 1 µM, 7x7, partner max 10 µM)
[1]
  Bliss excess: -0.0022
WM35 (Melanoma)
  Bliss excess: -0.0377
[2]
  Bliss excess: -0.0181
[3]
  Bliss excess: 0.0082
[4]
  Bliss excess: -0.0195
[5]
  Bliss excess: 0.0098
[6]
  Bliss excess: -0.0458
[7]
  Bliss excess: -0.0456
[8]
  Bliss excess: -0.0011
SK-N-SH (Neuroblastoma)
  Bliss excess: -0.0217
[9]
  Bliss excess: -0.0706
[10]
  Bliss excess: -0.109
[11]
  Bliss excess: -0.0414
[12]
  Bliss excess: -0.0583
[13]
  Bliss excess: -0.0501
[14]
  Bliss excess: -0.0205
[15]
  Bliss excess: -0.025
AM-38 (Glioblastoma)
  Bliss excess: 0.0359
[16]
  Bliss excess: -0.0057
[17]
  Bliss excess: 0.0356
